Converted amounts (≈) assume the structure as drawn. Like-named read-outs stand apart in the source and are kept apart here.
Legend:
E. coli TK-3 = test: Antibacterial activity (MIC, agar dilution) against E. coli TK-3*; format: cell-based; settings: Escherichia coli
Protocol: (§1) According to Chemotherapy, vol. 29, No. 1, pp. 76-79 (1981), bacterium was cultured in peptone broth manufactured by Eiken Kagaku K.K. at 37° C. for 20 hours to prepare a bacterial solution of 10^8 cells/ml, and one loopful of the bacterial solution was inoculated into Heart Infusion agar medium (manufactured by Eiken Kagaku K.K.) containing a drug, cultured at 37° C. for 20 hours, after which growth of bacterium was observed. The minimum concentration at which the growth of bacterium was prevented was indicated as MIC (μg/ml).
(§2) *means that β-lactamaseproducing bacteria.

S. marcescens W-8 = test: Antibacterial activity (MIC, agar dilution) against S. marcescens W-8*; format: cell-based; settings: Serratia marcescens
Protocol: as §1, §2

[1] = W8, S. marcescens W-8* (β-lactamase-producing bacteria), Heart Infusion agar, 37° C., 20 hours, one loopful of 10^8 cells/ml, read-out: MIC
[2] = TK3, E. coli TK-3* (β-lactamase-producing bacteria), Heart Infusion agar, 37° C., 20 hours, one loopful of 10^8 cells/ml, read-out: MIC

MIC (S. marcescens W-8; [1]) | MIC (E. coli TK-3; [2]) | Compound | MIC (E. coli TK-3; TK3, 20 h) | MIC (S. marcescens W-8; W8, 20 h)
0.39 µg/mL (≈ 0.739 µM) | 0.39 µg/mL (≈ 0.739 µM) | O=C(O)C(C(=O)N[C@@H]1C(=O)N2C[C@@](C(=O)O)(N3CCN(N=Cc4ccco4)C3=O)S[C@H]12)c1ccccc1 (stereo partly shown) [compound 2] |  | 
6.25 µg/mL (≈ 11 µM) | 6.25 µg/mL (≈ 11 µM) | O=C(O)C(C(=O)N[C@@H]1C(=O)N2C[C@@](C(=O)O)(N3CCN(N=Cc4ccc(O)c(O)c4)C3=O)S[C@H]12)c1ccccc1 (stereo partly shown) [compound 4] |  | 
12.5 µg/mL (≈ 24.7 µM) | 25 µg/mL (≈ 49.5 µM) | O=C(O)C=NN1CCN([C@]2(C(=O)O)CN3C(=O)[C@@H](NC(=O)C(C(=O)O)c4ccccc4)[C@H]3S2)C1=O (stereo partly shown) [compound 9] |  | 
0.1 µg/mL (≈ 0.188 µM) | 0.2 µg/mL (≈ 0.376 µM) | O=C(O)C=CC=NN1CCN([C@]2(C(=O)O)CN3C(=O)[C@@H](NC(=O)C(C(=O)O)c4ccccc4)[C@H]3S2)C1=O (stereo partly shown) [compound 11] |  | 
3.13 µg/mL (≈ 5.57 µM) | 12.5 µg/mL (≈ 22.3 µM) | O=C(O)C(C(=O)N[C@@H]1C(=O)N2C[C@@](C(=O)O)(N3CCN(NC(=O)C(F)(F)F)C3=O)S[C@H]12)c1ccc(O)cc1 (stereo partly shown) [compound 13] |  | 
3.13 µg/mL (≈ 4.94 µM) | 3.13 µg/mL (≈ 4.94 µM) | CCN1CCN(C(=O)NN2CCN([C@]3(C(=O)O)CN4C(=O)[C@@H](NC(=O)C(C(=O)O)c5ccc(O)cc5)[C@H]4S3)C2=O)C(=O)C1=O (stereo partly shown) [compound 14] |  | 
12.5 µg/mL (≈ 22.7 µM) | 12.5 µg/mL (≈ 22.7 µM) | O=C(O)CC(=O)NN1CCN([C@]2(C(=O)O)CN3C(=O)[C@@H](NC(=O)C(C(=O)O)c4ccc(O)cc4)[C@H]3S2)C1=O (stereo partly shown) [compound 15] |  | 
12.5 µg/mL (≈ 22.9 µM) | 12.5 µg/mL (≈ 22.9 µM) | O=C(O)C(C(=O)N[C@@H]1C(=O)N2C[C@@](C(=O)O)(N3CCN(NS(=O)(=O)O)C3=O)S[C@H]12)c1ccc(O)cc1 (stereo partly shown) [compound 16] |  | 
1.56 µg/mL (≈ 2.99 µM) | 1.56 µg/mL (≈ 2.99 µM) | CNC(=O)NN1CCN([C@]2(C(=O)O)CN3C(=O)[C@@H](NC(=O)C(C(=O)O)c4ccc(O)cc4)[C@H]3S2)C1=O (stereo partly shown) [compound 17] |  | 
0.39 µg/mL (≈ 0.655 µM) | 0.39 µg/mL (≈ 0.655 µM) | NC(=O)NN1CCN([C@]2(C(=O)O)CN3C(=O)[C@@H](NC(=O)C(c4cc(O)c(O)cc4Cl)S(=O)(=O)O)[C@H]3S2)C1=O (stereo partly shown) [compound 21] |  | 
12.5 µg/mL (≈ 18.4 µM) | 6.25 µg/mL (≈ 9.2 µM) | CC(=O)Oc1cc(C(C(=O)N[C@@H]2C(=O)N3C[C@@](C(=O)O)(N4CCN(NC(N)=O)C4=O)S[C@H]23)S(=O)(=O)O)cc(Cl)c1OC(C)=O (stereo partly shown) [compound 22] |  | 

The remaining lines, values behind:

Compound | MIC (S. marcescens W-8; [1]) | MIC (E. coli TK-3; [2]) | MIC (E. coli TK-3; TK3, 20 h) | MIC (S. marcescens W-8; W8, 20 h)
O=C(O)C(C(=O)N[C@@H]1C(=O)N2C[C@@](C(=O)O)(N3CCN(N=C4SCCS4)C3=O)S[C@H]12)c1ccccc1 (stereo partly shown) [compound 1] | 0.1 µg/mL (≈ 0.181 µM) |  | 0.39 µg/mL (≈ 0.707 µM) | 
CCN1CCN(C(=O)NN2CCN([C@]3(C(=O)O)CN4C(=O)[C@@H](NC(=O)C(C(=O)O)c5ccccc5)[C@H]4S3)C2=O)C(=O)C1=O (stereo partly shown) [compound 3] |  |  | 0.78 µg/mL (≈ 1.26 µM) | 0.78 µg/mL (≈ 1.26 µM)
O=C(NN1CCN([C@]2(C(=O)O)CN3C(=O)[C@@H](NC(=O)C(C(=O)O)c4ccccc4)[C@H]3S2)C1=O)c1cc(=O)c(O)c[nH]1 (stereo partly shown) [compound 5] |  |  | 3.13 µg/mL (≈ 5.34 µM) | 3.13 µg/mL (≈ 5.34 µM)
CSC(=NN1CCN([C@]2(C(=O)O)CN3C(=O)[C@@H](NC(=O)C(C(=O)O)c4ccccc4)[C@H]3S2)C1=O)SC (stereo partly shown) [compound 6] | 1.56 µg/mL (≈ 2.82 µM) |  | 3.13 µg/mL (≈ 5.65 µM) | 
O=CNN1CCN([C@]2(C(=O)O)CN3C(=O)[C@@H](NC(=O)C(C(=O)O)c4ccccc4)[C@H]3S2)C1=O (stereo partly shown) [compound 7] | 6.25 µg/mL (≈ 13.1 µM) | 12.5 µg/mL (≈ 26.2 µM) |  | 
NC(=O)C(=O)NN1CCN([C@]2(C(=O)O)CN3C(=O)[C@@H](NC(=O)C(C(=O)O)c4ccccc4)[C@H]3S2)C1=O (stereo partly shown) [compound 8] | 1.56 µg/mL (≈ 3 µM) |  | 3.13 µg/mL (≈ 6.01 µM) | 
C=CC=NN1CCN([C@]2(C(=O)O)CN3C(=O)[C@@H](NC(=O)C(C(=O)O)c4ccccc4)[C@H]3S2)C1=O (stereo partly shown) [compound 10] |  | 0.1 µg/mL (≈ 0.205 µM) |  | 0.05 µg/mL (≈ 0.103 µM)
O=C(O)C(C(=O)N[C@@H]1C(=O)N2C[C@@](C(=O)O)(N3CCN(N=CC=CCS(=O)(=O)O)C3=O)S[C@H]12)c1ccccc1 (stereo partly shown) [compound 12] | 0.1 µg/mL (≈ 0.172 µM) | 0.78 µg/mL (≈ 1.34 µM) |  | 
C=CC=NN1CCN([C@]2(C(=O)O)CN3C(=O)[C@@H](NC(=O)C(C(=O)O)c4ccc(O)cc4)[C@H]3S2)C1=O (stereo partly shown) [compound 18] | 0.1 µg/mL (≈ 0.199 µM) |  | ≤ 0.05 µg/mL | 
C#CC=NN1CCN([C@]2(C(=O)O)CN3C(=O)[C@@H](NC(=O)C(C(=O)O)c4ccc(O)cc4)[C@H]3S2)C1=O (stereo partly shown) [compound 19] |  |  | ≤ 0.05 µg/mL | ≤ 0.05 µg/mL
CC(=O)Oc1cc(Cl)c(C(C(=O)N[C@@H]2C(=O)N3C[C@@](C(=O)O)(N4CCN(NC(N)=O)C4=O)S[C@H]23)S(=O)(=O)O)cc1OC(C)=O (stereo partly shown) [compound 20] | 0.78 µg/mL (≈ 1.15 µM) | 0.78 µg/mL (≈ 1.15 µM) |  | 
O=C(O)C(C(=O)N[C@@H]1C(=O)N2C[C@@](C(=O)O)(N3CCN(N=C4SCCS4)C3=O)S[C@H]12)c1ccc(O)c(O)c1 (stereo partly shown) [compound 23] | 3.13 µg/mL (≈ 5.36 µM) | 3.13 µg/mL (≈ 5.36 µM) |  | 

Source: patent publication US5185330A, “Penam derivatives and salts thereof, and antibacterial agent comprising the same” (Toyama Chemical Co., Ltd., priority 1989, dated 1993)
